Assay results: patent US12171782B2 (priority 2020, dated 2024)

What was measured:
SARS-CoV PLP = SARS-CoV PLP (Severe acute respiratory syndrome coronavirus, UniProt P0C6X7); conditions: cited from earlier work
3CLPro/Mpro of SARS-CoV = 3CLPro/Mpro of SARS-CoV (Severe acute respiratory syndrome coronavirus, UniProt P0C6X7); conditions: cited from earlier work
SARS-CoV N protein = SARS-CoV N protein (Severe acute respiratory syndrome coronavirus, UniProt P59595); conditions: cited from earlier work
Sequence of SARS-CoV N protein (P59595 whole entry, looked up): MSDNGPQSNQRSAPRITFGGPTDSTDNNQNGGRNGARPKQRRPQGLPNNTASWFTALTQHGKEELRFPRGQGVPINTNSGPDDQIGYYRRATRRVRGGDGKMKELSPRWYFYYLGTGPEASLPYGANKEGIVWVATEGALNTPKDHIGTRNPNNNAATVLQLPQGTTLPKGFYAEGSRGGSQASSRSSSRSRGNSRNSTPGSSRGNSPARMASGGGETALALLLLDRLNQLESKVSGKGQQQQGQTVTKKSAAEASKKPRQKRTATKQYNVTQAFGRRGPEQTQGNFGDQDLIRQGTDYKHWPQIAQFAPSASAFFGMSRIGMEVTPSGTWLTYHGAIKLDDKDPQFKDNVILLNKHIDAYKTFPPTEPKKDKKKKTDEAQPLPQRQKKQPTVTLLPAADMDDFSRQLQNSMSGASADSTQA

[1] = tested on: SARS-CoV-2 replicating virus in Vero cells; conditions: virus replication; cited from earlier work
[2] = tested on: peripheral blood mononuclear cells (PBMC); test: MTT cytotoxicity assay in PBMCs; conditions: different concentrations, 24 h (FIG. 17)
SARS-CoV-2 strain = conditions: plaque reduction neutralization test; read-out: PRNT50; cited from earlier work
PLP of SARS-CoV-2 = PLP of SARS-CoV-2 (Severe acute respiratory syndrome coronavirus 2, UniProt P0DTD1); conditions: cited from earlier work
[3] = tested on: SARS-CoV-2 pseudotyped lentiviral vectors; conditions: blocked entry of pseudotyped lentiviral vectors; cited from earlier work
[4] = target: 3CLpro from the first SARS-CoV (Severe acute respiratory syndrome coronavirus, UniProt P0C6X7); conditions: cited from earlier work
common cold = conditions: after 7 days of treatment, 23 mg; placebo 46%; cited from earlier work

Question: Which “effects on the activity of PLP” value (SARS-CoV PLP) does the source give for `[Ca+2]` [Ca] here?
Answer: no effects

Question: For `[Co+2]` [Co], which “effects on the activity of PLP” value (SARS-CoV PLP) is on record?
Answer: no effects

Question: Which “effects on the activity of PLP” value (SARS-CoV PLP) does the source give for `[Mg]` [Mg] here?
Answer: no effects

Question: For `[Mn]` [Mn], which “effects on the activity of PLP” value (SARS-CoV PLP) is on record?
Answer: no effects

Question: With `[Ni]` [Ni] as the compound, how does the “effects on the activity of PLP” value (SARS-CoV PLP) read?
Answer: no effects

Question: What does the source list for `[Zn+2]` [Zn^2+]?
Answer: IC50 (SARS-CoV PLP): 1300 nM; Ki (3CLPro/Mpro of SARS-CoV): 1100 nM

Question: Which IC50 (SARS-CoV N protein) does the source give for (−)-gallocatechin gallate here?
Answer: 0.05 µg/mL

Question: Which results are given for Epigallocatechin-3-gallate [EGCG]?
Answer: IC50 [1]: 1.73 µg/mL; cell viability [2]: a decrease in viability; EC50 (SARS-CoV-2 strain): 200 nM; binding affinity to PLP core structure (PLP of SARS-CoV-2): highest binding affinity; IC50 [3]: 2.47 µg/mL; IC50 [4]: 73000 nM; inhibition of the recombinant 3CLpro/Mpro [4]: over 85%

Question: With N-ethyl-N-phenyl-dithio-carbamate-Zinc as the compound, how does the IC50 (SARS-CoV PLP) read?
Answer: 3300 nM

Question: With Zinc gluconate as the compound, how does the subjects asymptomatic (common cold) read?
Answer: 86%
